Assay results from ChEMBL document CHEMBL5465560, “Selectivity Literature for EUbOPEN Chemogenomic Library” (2024).

Legend:
[1] = target: Ribosomal protein S6 kinase alpha-2 (Homo sapiens) (UniProt Q15349); assay: Selectivity interaction (KinomeScan (DiscoverX)) EUB0001619a RPS6KA2; conditions: at 1 µM
[2] = target: T1, Serine/threonine-protein kinase TNNI3K (Homo sapiens) (UniProt Q59H18); assay: Selectivity interaction (KinomeScan (DiscoverX)) EUB0000595a TNNI3K; conditions: at 10 µM
T1 sequence (whole entry): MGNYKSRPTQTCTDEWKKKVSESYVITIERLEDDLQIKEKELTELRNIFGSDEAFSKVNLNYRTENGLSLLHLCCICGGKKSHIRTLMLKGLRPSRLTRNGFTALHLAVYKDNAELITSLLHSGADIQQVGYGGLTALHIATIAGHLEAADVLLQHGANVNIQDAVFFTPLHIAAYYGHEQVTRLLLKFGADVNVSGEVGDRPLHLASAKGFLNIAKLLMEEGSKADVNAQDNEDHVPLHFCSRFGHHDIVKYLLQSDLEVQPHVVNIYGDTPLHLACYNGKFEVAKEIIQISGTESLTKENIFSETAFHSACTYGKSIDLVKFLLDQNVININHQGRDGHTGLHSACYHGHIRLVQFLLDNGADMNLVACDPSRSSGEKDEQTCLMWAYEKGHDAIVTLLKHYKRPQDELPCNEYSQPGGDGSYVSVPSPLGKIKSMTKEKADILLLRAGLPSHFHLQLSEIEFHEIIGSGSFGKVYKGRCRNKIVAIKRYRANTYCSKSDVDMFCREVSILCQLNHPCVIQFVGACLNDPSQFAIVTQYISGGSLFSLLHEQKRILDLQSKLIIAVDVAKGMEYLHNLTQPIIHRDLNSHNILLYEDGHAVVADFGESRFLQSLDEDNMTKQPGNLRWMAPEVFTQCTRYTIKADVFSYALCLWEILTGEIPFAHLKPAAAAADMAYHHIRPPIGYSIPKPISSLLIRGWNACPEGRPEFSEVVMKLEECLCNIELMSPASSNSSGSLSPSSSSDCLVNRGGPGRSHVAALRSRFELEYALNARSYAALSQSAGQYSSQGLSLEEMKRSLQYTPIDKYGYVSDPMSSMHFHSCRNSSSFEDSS

[3] = target: Tyrosine-protein kinase ABL1 (Homo sapiens, UniProt P00519); assay: Selectivity interaction (ActivX KiNativ screen (kinase selectivity in THP-1 cell lysates)) EUB0000639a ABL1; assay type: subcellular; conditions: lysate, at 0.01 µM
Tyrosine-protein kinase ABL1, sequence (P00519 whole entry): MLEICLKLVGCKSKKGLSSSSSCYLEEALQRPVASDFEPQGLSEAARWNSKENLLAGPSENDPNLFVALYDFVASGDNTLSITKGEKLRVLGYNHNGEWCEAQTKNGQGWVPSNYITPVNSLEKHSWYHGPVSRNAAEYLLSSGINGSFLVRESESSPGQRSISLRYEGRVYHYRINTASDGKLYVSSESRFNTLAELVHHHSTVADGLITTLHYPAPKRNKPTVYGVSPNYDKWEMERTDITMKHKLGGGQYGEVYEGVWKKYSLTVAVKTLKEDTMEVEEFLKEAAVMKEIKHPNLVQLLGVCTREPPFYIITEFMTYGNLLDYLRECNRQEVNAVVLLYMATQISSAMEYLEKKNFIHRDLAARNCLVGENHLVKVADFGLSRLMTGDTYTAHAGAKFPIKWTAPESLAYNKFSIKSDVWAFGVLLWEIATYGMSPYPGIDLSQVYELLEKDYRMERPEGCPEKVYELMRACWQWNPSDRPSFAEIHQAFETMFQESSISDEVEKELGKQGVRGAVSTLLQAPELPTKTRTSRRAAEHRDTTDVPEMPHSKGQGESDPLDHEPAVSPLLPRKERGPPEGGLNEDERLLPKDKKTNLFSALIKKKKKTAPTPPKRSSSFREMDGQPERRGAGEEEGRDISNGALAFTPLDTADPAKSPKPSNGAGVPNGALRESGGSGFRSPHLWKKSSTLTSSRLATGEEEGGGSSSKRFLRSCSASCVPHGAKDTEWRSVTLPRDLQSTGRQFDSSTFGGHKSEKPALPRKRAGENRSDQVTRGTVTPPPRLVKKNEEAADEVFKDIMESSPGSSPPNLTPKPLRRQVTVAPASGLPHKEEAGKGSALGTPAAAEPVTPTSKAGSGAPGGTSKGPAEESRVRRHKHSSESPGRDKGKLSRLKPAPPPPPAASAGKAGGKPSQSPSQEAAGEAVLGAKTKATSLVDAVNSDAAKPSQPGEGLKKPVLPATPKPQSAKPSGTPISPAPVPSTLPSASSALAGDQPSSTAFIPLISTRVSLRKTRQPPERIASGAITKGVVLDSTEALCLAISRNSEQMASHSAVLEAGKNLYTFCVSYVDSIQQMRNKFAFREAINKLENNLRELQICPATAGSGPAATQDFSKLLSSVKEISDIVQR

[4] = target: T2, Serine/threonine-protein kinase Chk1 (Homo sapiens) (UniProt O14757); assay: Selectivity interaction (ActivX KiNativ screen (kinase selectivity in THP-1 cell lysates)) EUB0000639a CHEK1; assay type: subcellular; conditions: lysate
T2 sequence (whole entry): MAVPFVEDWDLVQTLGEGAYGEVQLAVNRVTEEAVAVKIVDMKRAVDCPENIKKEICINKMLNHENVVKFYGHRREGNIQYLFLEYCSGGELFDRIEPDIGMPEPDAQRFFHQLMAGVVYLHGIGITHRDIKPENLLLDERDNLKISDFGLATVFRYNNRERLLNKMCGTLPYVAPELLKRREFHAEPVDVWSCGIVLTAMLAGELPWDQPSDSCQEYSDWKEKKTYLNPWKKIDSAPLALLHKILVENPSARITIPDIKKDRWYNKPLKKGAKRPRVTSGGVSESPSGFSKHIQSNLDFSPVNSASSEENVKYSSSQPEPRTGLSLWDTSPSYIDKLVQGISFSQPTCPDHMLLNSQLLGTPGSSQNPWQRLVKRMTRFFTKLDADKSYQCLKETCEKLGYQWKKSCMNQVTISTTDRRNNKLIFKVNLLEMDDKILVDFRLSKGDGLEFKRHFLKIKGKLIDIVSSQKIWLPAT

[5] = target: Casein kinase I isoform gamma-1 (Homo sapiens) (UniProt Q9HCP0); assay: Selectivity interaction (KinomeScan (DiscoverX)) EUB0000092b CSNK1G1; conditions: at 10 µM
Casein kinase I isoform gamma-1 (Homo sapiens), sequence (Q9HCP0 whole entry, looked up, canonical isoform): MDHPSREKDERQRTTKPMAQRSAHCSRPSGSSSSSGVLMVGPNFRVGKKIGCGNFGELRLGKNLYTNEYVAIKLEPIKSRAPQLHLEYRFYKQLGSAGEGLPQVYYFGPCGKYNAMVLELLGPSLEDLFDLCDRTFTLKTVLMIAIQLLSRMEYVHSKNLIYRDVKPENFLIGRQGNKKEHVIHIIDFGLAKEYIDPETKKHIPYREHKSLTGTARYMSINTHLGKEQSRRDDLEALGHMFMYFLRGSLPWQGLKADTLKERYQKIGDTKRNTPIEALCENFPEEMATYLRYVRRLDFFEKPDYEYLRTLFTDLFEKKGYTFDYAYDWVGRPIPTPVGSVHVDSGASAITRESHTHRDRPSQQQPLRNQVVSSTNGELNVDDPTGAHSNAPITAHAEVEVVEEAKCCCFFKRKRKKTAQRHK

[6] = tested on: Epidermal growth factor receptor (Homo sapiens), P00533 [L858R]; assay: (§1) Selectivity interaction (KinomeScan (DiscoverX)) EUB0000092b EGFR; conditions: at 10 µM
[7] = tested on: Epidermal growth factor receptor (Homo sapiens), P00533 [T790M]; assay: as §1; conditions: at 10 µM
Epidermal growth factor receptor (Homo sapiens), P00533 [T790M], sequence (P00533 whole entry T790M): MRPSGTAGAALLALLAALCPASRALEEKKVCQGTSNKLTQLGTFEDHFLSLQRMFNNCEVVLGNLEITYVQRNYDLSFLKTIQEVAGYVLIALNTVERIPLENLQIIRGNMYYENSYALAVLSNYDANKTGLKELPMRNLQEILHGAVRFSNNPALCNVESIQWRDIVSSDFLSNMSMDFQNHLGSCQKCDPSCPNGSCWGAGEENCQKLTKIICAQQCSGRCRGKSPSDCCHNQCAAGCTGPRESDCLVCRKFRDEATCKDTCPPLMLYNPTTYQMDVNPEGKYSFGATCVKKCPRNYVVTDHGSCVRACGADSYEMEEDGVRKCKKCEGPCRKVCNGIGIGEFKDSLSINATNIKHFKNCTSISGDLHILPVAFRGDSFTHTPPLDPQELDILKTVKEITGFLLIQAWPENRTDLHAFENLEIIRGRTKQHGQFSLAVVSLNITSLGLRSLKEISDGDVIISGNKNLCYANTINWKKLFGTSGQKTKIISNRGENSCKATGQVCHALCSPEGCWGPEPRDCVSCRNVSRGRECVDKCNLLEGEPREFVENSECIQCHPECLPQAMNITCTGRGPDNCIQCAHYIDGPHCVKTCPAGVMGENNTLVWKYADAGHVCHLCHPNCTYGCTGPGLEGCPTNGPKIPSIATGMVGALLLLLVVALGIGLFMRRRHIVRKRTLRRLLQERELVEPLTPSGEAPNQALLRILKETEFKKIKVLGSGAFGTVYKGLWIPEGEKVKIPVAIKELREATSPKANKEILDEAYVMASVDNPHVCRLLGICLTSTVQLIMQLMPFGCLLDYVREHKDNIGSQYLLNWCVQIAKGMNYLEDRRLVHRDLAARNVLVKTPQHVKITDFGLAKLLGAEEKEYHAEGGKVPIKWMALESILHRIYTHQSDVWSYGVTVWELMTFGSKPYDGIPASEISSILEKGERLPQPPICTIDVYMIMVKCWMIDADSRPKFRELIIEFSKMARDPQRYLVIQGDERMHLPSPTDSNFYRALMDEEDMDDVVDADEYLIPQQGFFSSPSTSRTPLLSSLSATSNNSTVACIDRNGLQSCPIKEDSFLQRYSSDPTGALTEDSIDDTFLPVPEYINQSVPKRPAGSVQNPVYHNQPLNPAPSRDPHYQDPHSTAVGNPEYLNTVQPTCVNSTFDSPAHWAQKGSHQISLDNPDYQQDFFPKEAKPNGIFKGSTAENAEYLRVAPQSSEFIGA

[8] = tested on: Epidermal growth factor receptor (Homo sapiens), P00533 [L858R,T790M]; assay: as §1; conditions: at 10 µM
Epidermal growth factor receptor (Homo sapiens), P00533 [L858R,T790M], sequence (P00533 whole entry T790M/L858R, looked up): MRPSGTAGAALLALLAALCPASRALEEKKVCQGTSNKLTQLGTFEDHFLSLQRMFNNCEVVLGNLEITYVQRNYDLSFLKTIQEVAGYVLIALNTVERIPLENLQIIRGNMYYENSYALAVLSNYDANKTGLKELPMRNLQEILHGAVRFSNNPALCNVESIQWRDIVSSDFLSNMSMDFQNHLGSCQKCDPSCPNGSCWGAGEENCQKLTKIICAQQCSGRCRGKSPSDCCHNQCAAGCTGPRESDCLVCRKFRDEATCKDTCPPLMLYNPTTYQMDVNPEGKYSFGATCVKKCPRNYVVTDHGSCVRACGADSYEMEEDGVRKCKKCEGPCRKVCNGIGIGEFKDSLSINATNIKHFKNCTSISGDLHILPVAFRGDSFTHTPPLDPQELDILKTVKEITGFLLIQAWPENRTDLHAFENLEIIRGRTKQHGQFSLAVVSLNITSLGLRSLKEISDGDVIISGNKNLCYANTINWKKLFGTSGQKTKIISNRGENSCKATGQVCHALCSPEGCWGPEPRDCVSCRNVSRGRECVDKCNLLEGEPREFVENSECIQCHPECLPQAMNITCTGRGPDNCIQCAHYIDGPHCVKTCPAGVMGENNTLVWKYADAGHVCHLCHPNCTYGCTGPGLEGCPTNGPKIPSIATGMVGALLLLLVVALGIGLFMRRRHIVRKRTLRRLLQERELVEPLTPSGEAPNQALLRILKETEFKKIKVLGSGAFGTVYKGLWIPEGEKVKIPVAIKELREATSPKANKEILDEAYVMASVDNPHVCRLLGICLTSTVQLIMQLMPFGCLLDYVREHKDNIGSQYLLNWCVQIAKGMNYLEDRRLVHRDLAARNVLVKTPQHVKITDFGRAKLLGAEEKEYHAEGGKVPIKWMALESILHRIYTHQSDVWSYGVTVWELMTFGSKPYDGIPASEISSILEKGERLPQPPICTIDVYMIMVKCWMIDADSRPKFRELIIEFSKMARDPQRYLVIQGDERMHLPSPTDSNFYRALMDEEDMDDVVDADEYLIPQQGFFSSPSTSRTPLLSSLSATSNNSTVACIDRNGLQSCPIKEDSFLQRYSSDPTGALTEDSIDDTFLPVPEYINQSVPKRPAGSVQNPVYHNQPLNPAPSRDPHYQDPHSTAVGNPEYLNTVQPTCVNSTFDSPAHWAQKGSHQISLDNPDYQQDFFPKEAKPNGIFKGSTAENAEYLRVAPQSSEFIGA

[9] = tested on: Epidermal growth factor receptor (Homo sapiens), P00533 [UNDEFINED MUTATION]; assay: as §1; conditions: at 10 µM
[10] = target: Epidermal growth factor receptor (Homo sapiens, UniProt P00533); assay: as §1; conditions: at 10 µM
[11] = target: Mitogen-activated protein kinase kinase kinase kinase 5 (Homo sapiens) (UniProt Q9Y4K4); assay: Selectivity interaction (KinomeScan (DiscoverX)) EUB0001550a MAP4K5; conditions: at 1 µM
Mitogen-activated protein kinase kinase kinase kinase 5 (Homo sapiens), sequence (Q9Y4K4 whole entry, looked up): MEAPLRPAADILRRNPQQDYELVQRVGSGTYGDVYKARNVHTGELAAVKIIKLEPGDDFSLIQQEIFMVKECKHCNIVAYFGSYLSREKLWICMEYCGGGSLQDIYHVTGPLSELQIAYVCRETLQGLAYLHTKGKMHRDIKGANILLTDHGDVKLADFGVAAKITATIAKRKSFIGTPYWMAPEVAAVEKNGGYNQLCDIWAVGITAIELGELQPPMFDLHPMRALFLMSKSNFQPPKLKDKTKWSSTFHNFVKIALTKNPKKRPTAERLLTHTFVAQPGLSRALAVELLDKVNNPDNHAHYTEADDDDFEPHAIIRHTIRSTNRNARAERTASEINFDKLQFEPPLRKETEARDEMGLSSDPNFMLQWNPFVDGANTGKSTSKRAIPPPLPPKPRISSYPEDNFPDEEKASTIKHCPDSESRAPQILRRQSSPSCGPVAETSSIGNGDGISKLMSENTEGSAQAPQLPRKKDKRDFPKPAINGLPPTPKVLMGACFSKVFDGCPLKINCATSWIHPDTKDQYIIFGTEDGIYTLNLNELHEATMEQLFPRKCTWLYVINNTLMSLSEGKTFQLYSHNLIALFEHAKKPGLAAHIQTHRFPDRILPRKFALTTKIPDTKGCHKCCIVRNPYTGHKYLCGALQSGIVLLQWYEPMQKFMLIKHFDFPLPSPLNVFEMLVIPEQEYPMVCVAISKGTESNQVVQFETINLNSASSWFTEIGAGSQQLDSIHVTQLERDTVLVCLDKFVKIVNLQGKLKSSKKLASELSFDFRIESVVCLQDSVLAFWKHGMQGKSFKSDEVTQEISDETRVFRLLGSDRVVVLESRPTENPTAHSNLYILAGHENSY

[12] = target: Insulin-like growth factor 1 receptor (Homo sapiens, UniProt P08069); assay: Selectivity interaction (KinomeScan (DiscoverX)) EUB0000695a IGF1R; conditions: at 100 nM

Compound: N#Cc1cccc(-c2c[nH]c3ncnc(N4CCOCC4)c23)c1
- % of control [1]: 82%

Compound: COCC(=O)NC/C=C/c1ccc2ncnc(Nc3ccc(Oc4ccc(C)nc4)c(C)c3)c2c1 [CP-724714]
- % of control [2]: 100%

Compound: CC[C@@H]1[C@H](F)C(=O)N[C@@H]1COc1nccc2cc(C(N)=O)c(OC)cc12 [ZIMLOVISERTIB]
- % of inhibition [3]: 52%
- % of inhibition ([4]; at 0.01 µM): -7.6%
- % of inhibition ([4]; at 0.04 µM): 11.8%
- % of inhibition ([4]; at 0.2 µM): -8.5%
- % of inhibition ([4]; at 1 µM): 0.6%
- % of inhibition ([4]; at 5 µM): -18.5%

Compound: CCC(=O)N1CCN(c2ccc(-n3c(=O)ccc4cnc5ccc(-c6cnc7ccccc7c6)cc5c43)cc2C(F)(F)F)CC1
- % of control [5]: 100%
- % of control [6]: 100%
- % of control [7]: 100%
- % of control [8]: 100%
- % of control [9]: 100%
- % of control [10]: 85%

Compound: CN(C)CC#Cc1ccc2[nH]c3c(c2c1)-c1nc(N)ncc1CCC3
- % of control [11]: 96%

Compound: Cc1cc(F)c(C(=O)Nc2cccc(-c3nncn3C(C)C)n2)cc1-n1cnc(C2CC2)c1
- % of control [12]: 100%
